System: MC38 tumor model
Experiment: MC38 tumor model (fibrosis)
Format: in vivo
Settings: no dose or method printed

SMILES: CCCn1c(=O)c2c(nc(-c3cnn(Cc4cccc(C(F)(F)F)c4)c3)n2C(C)=O)n(CC)c1=O [Compound 1, 7-acetyl-3-ethyl-1-propyl-8-(1-(3-(trifluoromethyl)benzyl)-1H-pyrazol-4-yl)-3,7-dihydro-1H-purine-2,6-dione]
- fibrosis in a MC38 tumor model: reduces fibrosis
